Assay results reported in ChEMBL document CHEMBL5338773, “First-in-Class Selective Inhibitors of the Lysine Acetyltransferase KAT8” (J Med Chem, 2023).
Active and inactive are the calls of the source. The calls are words filed in the database; no cut-off is given here.

Experiments:
[1] = biological target: Histone acetyltransferase KAT2B (Homo sapiens) (UniProt Q92831); test: Inhibition of recombinant human KAT2B (492 to 658 residues) using histone H3 peptide and [3H]-acetyl-coA as substrates at 200 uM incubated for 1 hrs by liquid scintillation counter analysis
[2] = biological target: Histone acetyltransferase p300 (Homo sapiens) (UniProt Q09472); test: Inhibition of recombinant human KAT3B (1287 to 1673 residues) using histone H3 peptide and [3H]-acetyl-coA as substrates at 200 uM incubated for 1 hrs by liquid scintillation counter analysis
[3] = biological target: T1, Histone acetyltransferase KAT8 (Homo sapiens) (UniProt Q9H7Z6); test: Inhibition of N-terminal 6His tagged KAT8 (173 to 458 residues) (unknown origin) expressed in Escherichia coli BL21(DE3) using biotinylated histone H4 peptide and [3H]Acetyl-CoA as substrates at 200 uM preincubated for 20 mins followed by substrate addition and measured after 4 hrs by MicroBeta microplate counter analysis; details: time 260.0 min
T1 sequence (whole entry): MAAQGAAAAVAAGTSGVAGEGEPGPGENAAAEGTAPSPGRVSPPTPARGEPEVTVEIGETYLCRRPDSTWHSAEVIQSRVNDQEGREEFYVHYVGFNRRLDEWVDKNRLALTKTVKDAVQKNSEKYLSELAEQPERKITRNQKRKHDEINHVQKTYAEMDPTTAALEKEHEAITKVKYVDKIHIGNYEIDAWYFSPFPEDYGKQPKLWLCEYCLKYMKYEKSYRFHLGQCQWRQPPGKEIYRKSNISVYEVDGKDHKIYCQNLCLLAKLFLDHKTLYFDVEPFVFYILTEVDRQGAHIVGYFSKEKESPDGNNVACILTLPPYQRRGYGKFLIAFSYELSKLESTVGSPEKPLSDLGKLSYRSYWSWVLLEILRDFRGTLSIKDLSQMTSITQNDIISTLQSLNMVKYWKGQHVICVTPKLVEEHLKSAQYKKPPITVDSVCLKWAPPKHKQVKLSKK

[4] = Inhibition of human recombinant KDAC8
Homo sapiens [5] = organism: Homo sapiens; test: Inhibition of human recombinant KDAC1 using Boc-Lys-(Ac)-AMC as substrate at 50 to 100 uM incubated for 45 mins by fluorescence microplate reader analysis; details: dose 50-100 µM
[6] = biological target: Histone deacetylase 2 (Homo sapiens) (UniProt Q92769); test: Inhibition of human recombinant KDAC2 using Boc-Lys-(Ac)-AMC as substrate at 50 to 100 uM incubated for 45 mins by fluorescence microplate reader analysis; details: dose 50-100 µM
[7] = biological target: Histone deacetylase 3 (Homo sapiens) (UniProt O15379); test: Inhibition of human recombinant KDAC3 using Boc-Lys-(Ac)-AMC as substrate at 50 to 100 uM incubated for 45 mins by fluorescence microplate reader analysis; details: dose 50-100 µM
[8] = biological target: T2, Protein deacetylase HDAC6 (Homo sapiens) (UniProt Q9UBN7); test: Inhibition of human recombinant KDAC6 using Boc-Lys-(Ac)-AMC as substrate at 50 to 100 uM incubated for 45 mins by fluorescence microplate reader analysis; details: dose 50-100 µM
T2 sequence (whole entry): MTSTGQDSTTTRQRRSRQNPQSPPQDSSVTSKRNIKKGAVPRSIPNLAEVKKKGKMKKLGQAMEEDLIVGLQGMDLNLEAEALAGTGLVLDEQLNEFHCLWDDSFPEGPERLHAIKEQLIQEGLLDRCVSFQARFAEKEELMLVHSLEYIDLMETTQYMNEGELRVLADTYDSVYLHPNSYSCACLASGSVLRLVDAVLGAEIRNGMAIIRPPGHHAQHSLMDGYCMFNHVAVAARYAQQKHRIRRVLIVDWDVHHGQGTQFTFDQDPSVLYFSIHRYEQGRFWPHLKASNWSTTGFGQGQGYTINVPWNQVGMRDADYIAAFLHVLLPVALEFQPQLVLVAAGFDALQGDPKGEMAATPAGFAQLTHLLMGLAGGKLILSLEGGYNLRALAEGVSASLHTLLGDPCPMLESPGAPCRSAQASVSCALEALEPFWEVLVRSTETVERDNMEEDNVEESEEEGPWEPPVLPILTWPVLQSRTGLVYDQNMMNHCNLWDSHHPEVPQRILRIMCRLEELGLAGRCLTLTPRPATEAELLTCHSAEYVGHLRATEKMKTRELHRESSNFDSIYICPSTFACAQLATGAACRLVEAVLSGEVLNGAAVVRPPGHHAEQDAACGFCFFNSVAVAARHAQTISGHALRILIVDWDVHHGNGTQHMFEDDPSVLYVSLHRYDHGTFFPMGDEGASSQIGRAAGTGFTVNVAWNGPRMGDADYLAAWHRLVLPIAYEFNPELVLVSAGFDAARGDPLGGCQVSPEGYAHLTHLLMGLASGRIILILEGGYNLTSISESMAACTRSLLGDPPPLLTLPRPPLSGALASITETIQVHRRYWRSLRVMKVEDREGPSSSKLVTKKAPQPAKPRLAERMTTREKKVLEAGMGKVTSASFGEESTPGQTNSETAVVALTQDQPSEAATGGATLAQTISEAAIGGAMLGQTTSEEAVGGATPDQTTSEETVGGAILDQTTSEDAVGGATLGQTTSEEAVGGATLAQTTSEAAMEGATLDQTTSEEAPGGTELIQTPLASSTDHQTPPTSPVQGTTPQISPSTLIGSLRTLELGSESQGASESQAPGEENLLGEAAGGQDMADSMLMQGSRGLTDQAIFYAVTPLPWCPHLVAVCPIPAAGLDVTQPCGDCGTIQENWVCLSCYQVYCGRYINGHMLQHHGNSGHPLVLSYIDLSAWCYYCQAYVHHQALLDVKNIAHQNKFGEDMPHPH

Homo sapiens [9] = organism: Homo sapiens; test: Inhibition of human recombinant KDAC8 using Boc-Lys-(Ac)-AMC as substrate at 50 to 100 uM incubated for 45 mins by fluorescence microplate reader analysis; details: dose 50-100 µM

Sequence of Histone acetyltransferase p300 (Homo sapiens) (Q09472 whole entry, the tested form may be a part): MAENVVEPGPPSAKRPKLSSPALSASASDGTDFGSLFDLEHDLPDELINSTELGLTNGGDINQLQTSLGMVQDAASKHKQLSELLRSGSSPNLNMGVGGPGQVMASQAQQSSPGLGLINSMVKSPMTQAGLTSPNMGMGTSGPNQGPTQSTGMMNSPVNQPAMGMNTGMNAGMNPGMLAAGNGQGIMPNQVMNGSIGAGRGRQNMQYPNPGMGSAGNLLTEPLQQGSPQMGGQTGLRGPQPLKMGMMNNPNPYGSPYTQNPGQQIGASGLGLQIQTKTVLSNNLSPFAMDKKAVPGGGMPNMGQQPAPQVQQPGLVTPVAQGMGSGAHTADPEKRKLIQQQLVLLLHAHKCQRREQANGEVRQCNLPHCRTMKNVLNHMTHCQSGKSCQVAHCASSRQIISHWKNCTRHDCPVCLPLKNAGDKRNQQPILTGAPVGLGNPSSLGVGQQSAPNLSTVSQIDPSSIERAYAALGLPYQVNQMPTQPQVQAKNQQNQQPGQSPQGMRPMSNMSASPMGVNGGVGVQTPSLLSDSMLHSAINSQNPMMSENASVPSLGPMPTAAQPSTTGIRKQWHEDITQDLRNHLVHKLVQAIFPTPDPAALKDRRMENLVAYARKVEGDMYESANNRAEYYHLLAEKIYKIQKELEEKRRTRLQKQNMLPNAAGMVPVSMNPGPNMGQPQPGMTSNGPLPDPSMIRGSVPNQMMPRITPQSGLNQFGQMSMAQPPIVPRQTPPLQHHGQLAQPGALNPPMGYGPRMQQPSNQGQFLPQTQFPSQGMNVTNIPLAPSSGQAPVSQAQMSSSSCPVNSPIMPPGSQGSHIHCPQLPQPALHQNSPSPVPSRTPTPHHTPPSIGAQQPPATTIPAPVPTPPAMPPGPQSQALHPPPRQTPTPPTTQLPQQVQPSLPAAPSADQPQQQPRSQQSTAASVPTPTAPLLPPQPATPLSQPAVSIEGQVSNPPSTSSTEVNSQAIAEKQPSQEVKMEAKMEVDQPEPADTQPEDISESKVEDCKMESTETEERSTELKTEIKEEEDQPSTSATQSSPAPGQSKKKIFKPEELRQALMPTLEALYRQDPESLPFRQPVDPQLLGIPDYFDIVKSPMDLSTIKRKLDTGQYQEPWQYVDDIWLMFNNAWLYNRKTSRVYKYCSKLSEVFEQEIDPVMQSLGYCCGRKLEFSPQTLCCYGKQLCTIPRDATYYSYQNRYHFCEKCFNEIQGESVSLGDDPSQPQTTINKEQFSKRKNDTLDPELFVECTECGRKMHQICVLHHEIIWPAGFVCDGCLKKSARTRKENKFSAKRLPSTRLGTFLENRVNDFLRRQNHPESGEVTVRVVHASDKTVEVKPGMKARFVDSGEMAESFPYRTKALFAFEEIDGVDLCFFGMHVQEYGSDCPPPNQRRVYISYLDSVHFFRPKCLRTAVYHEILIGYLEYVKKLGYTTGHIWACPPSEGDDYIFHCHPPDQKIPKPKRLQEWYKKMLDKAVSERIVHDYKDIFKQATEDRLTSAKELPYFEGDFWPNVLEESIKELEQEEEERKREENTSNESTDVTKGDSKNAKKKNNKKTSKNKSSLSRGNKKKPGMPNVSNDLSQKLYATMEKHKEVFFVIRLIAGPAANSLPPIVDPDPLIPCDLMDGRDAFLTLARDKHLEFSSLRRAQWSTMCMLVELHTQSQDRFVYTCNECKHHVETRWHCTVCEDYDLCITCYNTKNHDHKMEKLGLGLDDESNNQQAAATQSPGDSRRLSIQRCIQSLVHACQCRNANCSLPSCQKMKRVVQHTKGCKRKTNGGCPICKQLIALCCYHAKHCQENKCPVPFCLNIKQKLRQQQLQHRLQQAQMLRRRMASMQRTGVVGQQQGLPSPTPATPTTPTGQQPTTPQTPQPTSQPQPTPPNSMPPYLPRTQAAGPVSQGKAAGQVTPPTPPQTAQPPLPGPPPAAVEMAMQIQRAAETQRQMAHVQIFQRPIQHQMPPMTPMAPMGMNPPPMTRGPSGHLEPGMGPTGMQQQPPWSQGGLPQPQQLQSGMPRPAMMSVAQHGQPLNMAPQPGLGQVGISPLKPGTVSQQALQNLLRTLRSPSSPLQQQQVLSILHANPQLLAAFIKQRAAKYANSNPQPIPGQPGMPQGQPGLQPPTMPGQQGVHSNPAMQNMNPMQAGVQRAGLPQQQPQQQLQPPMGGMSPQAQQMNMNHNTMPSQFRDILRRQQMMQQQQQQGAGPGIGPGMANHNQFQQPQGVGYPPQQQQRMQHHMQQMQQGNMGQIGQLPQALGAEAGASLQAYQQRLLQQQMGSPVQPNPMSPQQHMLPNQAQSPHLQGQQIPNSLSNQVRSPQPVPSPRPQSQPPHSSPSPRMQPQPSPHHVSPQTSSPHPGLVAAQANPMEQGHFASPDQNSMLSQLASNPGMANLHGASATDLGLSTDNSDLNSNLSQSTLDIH
Sequence of Histone acetyltransferase KAT2B (Homo sapiens) (Q92831 whole entry, looked up, the tested form may be a part): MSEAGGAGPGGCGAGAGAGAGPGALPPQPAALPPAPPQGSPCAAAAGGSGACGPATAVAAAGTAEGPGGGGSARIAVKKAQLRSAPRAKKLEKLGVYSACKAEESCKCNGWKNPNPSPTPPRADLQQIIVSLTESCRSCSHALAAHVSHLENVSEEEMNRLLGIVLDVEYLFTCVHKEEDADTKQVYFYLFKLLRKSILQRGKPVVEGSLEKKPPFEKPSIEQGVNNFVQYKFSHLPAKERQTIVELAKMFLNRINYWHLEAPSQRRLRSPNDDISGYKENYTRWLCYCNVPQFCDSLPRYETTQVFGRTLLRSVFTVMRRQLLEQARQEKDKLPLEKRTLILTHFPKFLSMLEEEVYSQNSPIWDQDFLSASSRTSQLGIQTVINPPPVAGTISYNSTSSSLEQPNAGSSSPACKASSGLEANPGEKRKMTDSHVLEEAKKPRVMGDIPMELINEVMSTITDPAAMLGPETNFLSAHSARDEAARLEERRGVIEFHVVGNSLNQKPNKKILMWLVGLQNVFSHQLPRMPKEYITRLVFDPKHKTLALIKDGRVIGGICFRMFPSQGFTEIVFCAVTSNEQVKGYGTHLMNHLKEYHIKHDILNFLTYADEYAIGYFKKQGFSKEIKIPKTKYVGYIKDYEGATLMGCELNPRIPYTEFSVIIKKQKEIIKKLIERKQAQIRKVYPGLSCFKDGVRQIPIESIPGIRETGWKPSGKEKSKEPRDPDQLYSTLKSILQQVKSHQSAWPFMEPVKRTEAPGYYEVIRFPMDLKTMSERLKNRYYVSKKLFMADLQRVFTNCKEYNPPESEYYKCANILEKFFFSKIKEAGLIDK
Sequence of Histone deacetylase 3 (Homo sapiens) (O15379 whole entry): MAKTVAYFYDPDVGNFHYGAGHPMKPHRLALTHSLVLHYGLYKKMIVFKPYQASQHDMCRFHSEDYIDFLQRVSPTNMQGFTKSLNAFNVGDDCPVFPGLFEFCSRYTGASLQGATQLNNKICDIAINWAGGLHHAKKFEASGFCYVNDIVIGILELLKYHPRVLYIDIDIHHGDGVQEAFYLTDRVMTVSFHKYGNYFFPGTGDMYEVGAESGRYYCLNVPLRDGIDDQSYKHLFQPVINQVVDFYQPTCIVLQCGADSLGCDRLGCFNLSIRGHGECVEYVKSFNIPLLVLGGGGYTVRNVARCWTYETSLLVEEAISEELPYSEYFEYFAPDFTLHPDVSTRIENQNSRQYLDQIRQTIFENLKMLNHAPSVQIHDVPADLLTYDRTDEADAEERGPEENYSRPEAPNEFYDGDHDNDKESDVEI
Sequence of Histone deacetylase 2 (Homo sapiens) (Q92769 whole entry): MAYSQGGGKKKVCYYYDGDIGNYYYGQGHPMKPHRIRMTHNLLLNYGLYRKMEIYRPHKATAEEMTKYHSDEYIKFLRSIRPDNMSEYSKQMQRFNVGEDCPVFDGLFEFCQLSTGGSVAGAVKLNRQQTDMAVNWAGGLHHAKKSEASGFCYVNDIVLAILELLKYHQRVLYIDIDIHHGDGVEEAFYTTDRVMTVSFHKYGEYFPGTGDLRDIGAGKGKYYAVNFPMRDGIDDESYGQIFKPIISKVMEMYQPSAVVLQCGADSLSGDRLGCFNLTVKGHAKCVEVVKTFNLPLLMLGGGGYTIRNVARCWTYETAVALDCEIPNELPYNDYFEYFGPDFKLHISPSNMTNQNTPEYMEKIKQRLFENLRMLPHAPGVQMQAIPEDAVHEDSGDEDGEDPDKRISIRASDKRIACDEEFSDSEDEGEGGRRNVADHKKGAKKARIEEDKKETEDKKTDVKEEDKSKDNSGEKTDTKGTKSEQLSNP

SMILES | inhibition [1] | inhibition [2] | other results
CC1=NN(c2ccc(C(=O)O)cc2)C(=O)/C1=C\c1cc(C(=O)c2ccccc2[N+](=O)[O-])c[nH]1 | inactive | – | –
CC(C)C1=NN(c2ccc(C(=O)O)cc2)C(=O)/C1=C\c1ccc[nH]1 | inactive | inactive | –
CC1=NN(c2ccc(C(=O)O)cc2)C(=O)/C1=C\c1cccn1-c1ccccc1 | inactive | – | –
CC1=NN(c2ccc(C(=O)O)cc2)C(=O)/C1=C\c1cccs1 | inactive | – | –
CC1=NN(c2ccc(C(=O)NCc3ccccc3)cc2)C(=O)/C1=C\c1ccc[nH]1 | inactive | inactive | inhibition [3]: inactive
CC1=NN(c2ccc(C(=O)O)cc2)C(=O)C1=Cc1ccco1 (mixture of isomers) | inactive | – | –
CC1=NN(c2ccc(C(N)=O)cc2)C(=O)/C1=C\c1ccc[nH]1 | inactive | inactive | –
CC1=NN(c2ccc(C(=O)O)cc2)C(=O)/C1=C\c1cc(C(=O)c2ccc(Cl)cc2)c[nH]1 | – | – | inhibition [3]: inactive
CC1=NN(c2ccc(C(=O)O)cc2)C(=O)/C1=C\c1cccn1C | inactive | – | –
CC1=NN(c2ccc(C(=O)O)cc2)C(=O)/C1=C(/C)c1ccc[nH]1 | inactive | inactive | –
CC1=NN(c2ccc(C(=O)N(C)C)cc2)C(=O)/C1=C\c1ccc[nH]1 | inactive | inactive | –
CC1=NN(c2ccc(C(=O)O)cc2)C(=O)/C1=C\c1cc(C(=O)c2ccc([N+](=O)[O-])cc2)c[nH]1 | – | – | inhibition [3]: inactive
Cc1nn(-c2ccc(C(=O)O)cc2)c(O)c1Cc1ccc[nH]1 | inactive | inactive | –
CC1=NN(c2ccc(C(=O)O)cc2)C(=O)/C1=C\c1ccn[nH]1 | inactive | inactive | –
CC1=NN(c2ccc(C(=O)O)cc2)C(=O)/C1=C\c1cc(C(=O)c2ccccc2O)c[nH]1 | – | – | inhibition [3]: inactive
CC1=NN(c2ccc(C(=O)O)cc2)C(=O)/C1=C\c1ccc(-c2cc(C)c(C)cc2[N+](=O)[O-])o1 | inactive | – | IC50 [4]: 7 µM; inhibition [3]: inactive; inhibition (Homo sapiens [5]): Active; inhibition [6]: Active; inhibition [7]: Active; inhibition [8]: Active; inhibition (Homo sapiens [9]): Active

SMILES | inhibition [1] | inhibition [2] | other results
O=C(O)c1ccc(N2N=C(Cc3ccccc3)/C(=C/c3ccc[nH]3)C2=O)cc1 | inactive | inactive | –
CC1=NN(c2ccc(C(=O)O)cc2)C(=O)/C1=C\c1c[nH]c2ccccc12 | inactive | – | –
CC1=NN(c2ccccc2)C(=O)/C1=C\c1cc(C(=O)c2ccccc2)c[nH]1 | – | – | inhibition [3]: inactive
CC1=NN(c2ccc(C(=O)O)cc2)C(=O)/C1=C\c1ccccc1 | inactive | inactive | –
CC1=NN(c2ccc(C(=O)O)cc2)C(=O)/C1=C\c1cc[nH]c1 | inactive | inactive | –
CC1=NN(c2ccc(C(=O)O)cc2)C(=O)C1 | – | – | inhibition [3]: inactive
CC1=NN(c2ccccc2)C(=O)/C1=C\c1cc(C(=O)c2ccccc2[N+](=O)[O-])c[nH]1 | – | – | inhibition [3]: inactive
CC1=NN(c2cccc(C(=O)O)c2)C(=O)/C1=C\c1ccc[nH]1 | inactive | inactive | –
CC1=NN(c2ccc(C(=O)NCCCN3CCCC3)cc2)C(=O)/C1=C\c1ccc[nH]1 | – | – | inhibition [3]: inactive
CC1=NN(c2ccc(C(=O)O)cc2)C(=O)/C1=C\c1cc(C(=O)c2ccccc2C)c[nH]1 | inactive | – | –
CC1=NN(c2ccc(C(=O)O)cc2)C(=O)/C1=C\c1c[nH]cn1 | inactive | – | –
Cc1nn(-c2ccc(C(=O)O)cc2)c(O)c1Cc1ccccc1 | inactive | inactive | –
CC1=NN(c2ccc(C(=O)O)cc2)C(=O)/C1=C\c1cc(C(=O)c2ccccc2)c[nH]1 | inactive | – | –
CC1=NN(c2ccc(C(=O)O)cc2)C(=O)/C1=C\c1cc2ccccc2[nH]1 | inactive | – | –
CCCCCCCc1ccc(CCc2cccc(O)c2C(=O)O)cc1 | inactive | – | –
CC1=NN(c2ccc(C(=O)O)cc2)C(=O)/C1=C\c1cc(C(=O)c2ccccc2Cl)c[nH]1 | inactive | – | –
